Test results as given in patent publication US7635423B2, “Redox potential mediated, heterogeneous, carbon nanotube biosensing” (E. I. du Pont de Nemours and Company, priority 2004, dated 2009).
Values joined by “and” are separate entries in the source; they are usually repeats but may differ in a detail not shown here. Equal entries are not always repeated. Structures can show the parent of a compound that is named as a salt. Where two headings read alike, the source gives them in different places.

What was measured:
[1] = system: Trametes versicolor laccase; assay: Laccase inhibitor kinetics: rate of ABTS^−2 oxidation at varied inhibitor and substrate concentrations; assay type: biochemical
Description: High potential quinones/quinols were screened to identify those with characteristics that would be suitable for use as an inhibitor of laccase, to be used in an activity switch.
Compounds were evaluated by varying the concentrations of inhibitor and substrate (ABTS^−2) and measuring under each condition the rate of ABTS^−2 oxidation. […] Tetrachloro-o-quinol and tetrafluoro-o-quinol, shown in Diagram I, had Kds, of 7-9 μM and 2.5 μM, respectively, as determined from the data in FIG. 20.
[…]

[2] = system: Trametes versicolor laccase; assay: Laccase assay: ABTS^−2 oxidation followed at 436 nm, with and without NaF; assay type: biochemical; details: 1 mM NaF; 5 mM ABTS^−2; 50 mM Glycine pH 3.0
Description: A stock solution of Trametes versicolor laccase (4.8 mg/ml) was diluted 200,000-fold into 50 mM Glycine, pH 3.0. At time zero, ABTS^−2 (2,2′-azino-bis(3-ethylbenzthiazoline-6-sulfonate) diammonium salt was added at a concentration of 5 mM and the oxidation of ABTS^−2 was followed by monitoring the absorbance change at 436 nm. Shown in FIG. 12 is the result of the laccase assay in the presence and absence of 1 mM NaF. The latter inhibits the laccase activity by 95%.

[3] = system: laccase (Type I copper center); assay: Laccase 600 nm absorbance peak on inhibitor binding; design: species or system Trametes versicolor
Text: This conclusion was strengthened by the observation that the binding of tetrachloro-o-quinol to laccase caused a decrease in the amplitude of the laccase 600 nm absorbance peak, dominated by a charge-transfer band involving the Type I copper center and its cysteinyl ligand.

[4] = system: surface-attached oligo 29 (complementary) vs oligo 28 (non-complementary); assay: Detection of DNA hybridization by CNT device (current vs time at Vg=−0.4 V); details: 30 μM ABTS^−2, 50 mM glycine pH 3, adduct 50 nM (in DNA)
Description: Detection of DNA hybridization in a CNT device was assayed as diagramed in FIG. 17. […] In the diagram, two electrodes are indicated, one source electrode (10) and one drain electrode (20), where the electrodes are connected by an electrically conducting path comprising at least one semiconducting carbon nanotube (30). A third electrode (40) generates an electric field to gate the conductance of the CNT. Nucleic acid molecules, functioning as capture moieties (220) are attached to a surface (60) through a silyl butyraldehyde attachment group (230). An oligonucleotide (260) that hybridizes to the capture moiety nucleic acid is attached to the enzyme laccase (270). Laccase oxidizes ABTS^−2 (2,2′ azino-di-(3-ethylbenzthiazoline-sulfonate) at the expense of O2, transferring 4 electrons from 4ABTS^−2 to O2, producing 4ABTS^−1 and H2O. Thus the redox potential of the redox effector (ABTS^−2/ABTS^−1) in solution becomes more positive. This change in effector redox potential oxidizes the CNTs, increasing their p-type conductance. […]
Electron transport through the CNT was first recorded in the 50 mM glycine pH=3 buffer and immediately after flowing 30 μM ABTS^−2 in the same buffer into the flow cell. […]

[5] = system: surface-bound oligonucleotide 51; assay: Fluorescence signals following hybridization to surface bound oligo; assay type: binding; details: camera exposure 30 s
Description: To increase the specificity of hybridization, the chips were incubated with Sigma #6429 1× Blocking buffer for 1 h. Excess blocking solution was removed by rinsing with 50 mM Na Acetate pH 5.0 plus 100 mM Na2SO4. Surface-bound oligonucleotide 51 was hybridized separately to: • 1) Oligonucleotide 52 (SEQ ID NO:4), acting as a target sequence, hybridized to oligonucleotide 54 (SEQ ID NO:5). Oligonucleotide 54 has 18 nucleotides complementary to the 3′ end of the target oligonucleotide 52 and a fluorescent tag, Alexa Fluor 546, at its 5′ end. Oligonucleotide 52 has at its 5′ end 18 nucleotides complementary to oligonucleotide 51. • 2) Oligonucleotide 52 (SEQ ID NO:4), acting as a target sequence, hybridized to oligonucleotide 50 (SEQ ID NO:5). Oligonucleotide 50 has the same nucleotide sequence as oligonucleotide 54 and was attached to laccase enzyme (lac/oligo 50) as described below in Example 13, This oligonucleotide also has a Cy3 tag at its 3′ end. All oligonucleotides were purchased from Integrated DNA Technologies, Inc. (Coralville, Iowa). Oligos 52 and 54 in (1), and oligos 52 and 50 in (2) were prehybridized in 50 mM Na Acetate pH 5.0 plus 100 mM Na2SO4 for 10 min at 50° C., then allowed to cool to room temperature before adding to the chip with oligo 51.
Hybridizations of the surface bound probe, oligo 51, with the samples listed above were carried out in 50 mM Na Acetate pH 5.0 plus 100 mM Na2SO4. Unbound oligonucleotides were removed by rinsing with Washing Buffer A (Arraylt, Telechem International Inc., Sunnyvale, Calif.). Where a laccase/DNA adduct was used for hybridization, 50 mM Na Acetate pH 5.0 plus 100 mM Na2SO4 was used for the wash. After washing, the chip was covered with a cover slip and observed using a fluorescence microscope. The extent of hybridization was evaluated by measuring fluorescence emission from fluorescent-tagged oligonucleotides attached or not to laccase.
Results of fluorescent signals following hybridizations in 1) and 2) above, using different concentrations of oligos as listed, are given in Table 1. […]

[6] = plots of reciprocal rate vs inhibitor concentration, FIG. 20, read-out: Kd (dissociation constant of the inhibitor, -Ki intersection)

CCn1c(=NN=c2sc3cc(S(=O)(=O)O)ccc3n2CC)sc2cc(S(=O)(=O)O)ccc21 [ABTS^−2, 2,2′-azino-bis(3-ethylbenz-thiazoline-6-sulfonate) diammonium salt, reference compound]
Kd ([1]; substrate of laccase, read-out: dissociation constant, Kd of the laccase substrate): 120 to 240 µM

[F-].[Na+] [NaF]
inhibition of laccase activity [2]: 95%

Oc1c(O)c(Cl)c(Cl)c(Cl)c1Cl [Tetrachloro-o-quinol]
activity as an inhibitor of laccase [1]: effective inhibitor
Kd [1, 6]: 7 to 9 µM
amplitude of the laccase 600 nm absorbance peak on binding [3]: decrease

Oc1c(Cl)c(Cl)c(O)c(Cl)c1Cl [tetrachloro-p-quinol]
activity as an inhibitor of laccase [1]: inactive

Oc1c(O)c(F)c(F)c(F)c1F [tetrafluoro-o-quinol]
Kd [1, 6]: 2.5 µM

oligo28/laccase adduct: oligo 28 (SEQ ID NO:1) attached via 5′ hydrazide to periodate-treated Trametes versicolor laccase (CGCTGTGATGGTGGCCCC; Laccase enzyme attached through a 5' hydrazide, further chemistry not given here)
increase in current, complementary vs non-complementary surface oligonucleotide [4]: 3.5 fold

B1: Oligo52 + Oligo54: target oligonucleotide 52 (SEQ ID NO:4) prehybridized to oligonucleotide 54 (SEQ ID NO:5) with 5′ Alexa Fluor 546 tag (nucleic acid)
chain 1: GGGGCCACCATCACAGCGTTTTTTTTTTGGGGCCACCATCACAGCG
chain 2: CGCTGTGATGGTGGCCCC
modifications: Second strand carries a 5' Alexa Fluor 546 label, further chemistry not given here; the letters are possibly those of the target site
Relative signal amplitude ([5]; 1 nM): 39 and 50
Relative signal amplitude ([5]; 10 nM): 940 and 990
Relative signal amplitude ([5]; 100 nM): 1140 and 1690
